This passage reports T/C results from PubChem BioAssay AID246 (DTP/NCI, 2004).

Where “and” joins values, the source holds several entries; their conditions need not be identical. Equal values may be shown once. Inconclusive results and toxic doses are left out.

This assay has as its system BDF1 mice, P1081 chloroleukemia ip, survival T/C. Briefly: NCI In Vivo Anticancer Drug Screen. Data for tumor model P1081 Chloroleukemia (intraperitoneal) in B6D2F1 (BDF1) mice. The conditions noted are these: endpoint: mean survival time, higher = longer survival. As to the method: The antitumor activity of compounds was measured in mice bearing transplantable tumors. Survival or tumor size were measured and the results are expressed as the measurement made in the treated group (T) divided by the measurement made in the vehicle treated control group (C). The tumor model used in this assay is P1081 Chloroleukemia (intraperitoneal) in B6D2F1 (BDF1) mice

Where [1] appears, read: dose: 2.0 mg/kg/injection, schedule: Q01DX010 (ip), vehicle: saline.
Setting [2] is: dose: 62.5 mg/kg/injection, schedule: Q01DX010 (ip), vehicle: saline.
The mark [3] stands for this setting: dose: 125.0 mg/kg/injection, schedule: Q01DX010 (ip), vehicle: saline.
[4] abbreviates: dose: 250.0 mg/kg/injection, schedule: Q01DX010 (ip), vehicle: saline.
The mark [5] stands for this setting: dose: 500.0 mg/kg/injection, schedule: Q01DX010 (ip), vehicle: saline.
[6] abbreviates: dose: 16.0 mg/kg/injection, schedule: Q01DX010 (ip), vehicle: saline.
[7] abbreviates: dose: 25.0 mg/kg/injection, schedule: Q01DX Z (ip), vehicle: carboxymethylcellulose (CMC).
[8] abbreviates: dose: 50.0 mg/kg/injection, schedule: Q01DX Z (ip), vehicle: carboxymethylcellulose (CMC).
[9] abbreviates: dose: 100.0 mg/kg/injection, schedule: Q01DX Z (ip), vehicle: carboxymethylcellulose (CMC).
Setting [10] is: dose: 200.0 mg/kg/injection, schedule: Q01DX Z (ip), vehicle: carboxymethylcellulose (CMC).
Setting [11] is: dose: 6.25 mg/kg/injection, schedule: Q01DX Z (ip), vehicle: carboxymethylcellulose (CMC).
The mark [12] stands for this setting: dose: 12.5 mg/kg/injection, schedule: Q01DX Z (ip), vehicle: carboxymethylcellulose (CMC).

As to `O=C(Nc1ccc(C2=NCCN2)cc1)c1ccc(C(=O)Nc2ccc(C3=NCCN3)cc2)c(Cl)c1`, the T/C is, setting by setting: (dose: 1.8 mg/kg/injection, schedule: Q01DX Z (ip), vehicle: water) 97 % of control; (dose: 7.5 mg/kg/injection, schedule: Q01DX Z (ip), vehicle: water) 97 % of control; (dose: 60.0 mg/kg/injection, schedule: Q01DX Z (ip), vehicle: water) 86 % of control.
`COc1cc2c(c(OC)c1OC)-c1ccc(N)c(=O)cc1[C@@H](NC(C)=O)CC2`: the T/C is 177 % of control (dose: 0.5 mg/kg/injection, schedule: Q01DX010 (ip), vehicle: saline); 188 % of control and 250 % of control (dose: 1.0 mg/kg/injection, schedule: Q01DX010 (ip), vehicle: saline); 100 % of control under setting [1].
`CC(=O)N(C)C`: the T/C is 100 % of control under setting [2]; 90 % of control and 95 % of control under setting [3]; 90 % of control and 95 % of control under setting [4]; 90 % of control and 95 % of control under setting [5].
Turning to `OCC1OC(n2cnc3c(Cl)ncnc32)C(O)C1O` (centres undefined), the T/C by setting is: (dose: 2.5 mg/kg/injection, schedule: Q01DX Z (ip), vehicle: carboxymethylcellulose (CMC)) 103 % of control; under setting [2], 95 % of control; (dose: 62.5 mg/kg/injection, schedule: Q01DX Z (ip), vehicle: carboxymethylcellulose (CMC)) 95 % of control; under setting [3], 90 % of control; (dose: 125.0 mg/kg/injection, schedule: Q01DX Z (ip), vehicle: carboxymethylcellulose (CMC)) 91 % of control; under setting [4], 100 % of control. Further, the T/C was 118 % of control and 95 % of control (dose: 250.0 mg/kg/injection, schedule: Q01DX Z (ip), vehicle: carboxymethylcellulose (CMC)); 100 % of control under setting [5]; 98 % of control and 104 % of control (dose: 500.0 mg/kg/injection, schedule: Q01DX Z (ip), vehicle: carboxymethylcellulose (CMC)).
On to `CN1CC[C@]23c4c5ccc(O)c4O[C@H]2C(=O)CC[C@H]3[C@H]1C5`, for which the T/C by setting is: under setting [1], 105 % of control; (dose: 4.0 mg/kg/injection, schedule: Q01DX010 (ip), vehicle: saline) 90 % of control and 100 % of control; (dose: 8.0 mg/kg/injection, schedule: Q01DX010 (ip), vehicle: saline) 90 % of control and 105 % of control; under setting [6], 90 % of control and 100 % of control.
For the compound `C[C@@H]1C[C@H]2CC[C@H](O2)[C@H](C)C(=O)O[C@@H](C)C[C@@H]2CC[C@@H](O2)[C@@H](C)C(=O)O[C@H](C)C[C@H]2CC[C@H](O2)[C@H](C)C(=O)O[C@@H](C)C[C@@H]2CC[C@@H](O2)[C@@H](C)C(=O)O1`, the T/C is, setting by setting: under setting [7], 107 % of control; under setting [8], 109 % of control; under setting [9], 100 % of control; under setting [10], 93 % of control.
`C[C@]12CC[C@H](OC3OC(CO)C(O)C(O)C3O)C[C@H]1CC[C@@H]1[C@@H]2CC[C@]2(C)[C@@H](C3=CCOC3=O)CC[C@]12O` (some centres undefined): the T/C (dose: 0.5 mg/kg/injection, schedule: Q01DX Z (ip), vehicle: saline) is 94 % of control; the T/C (dose: 1.0 mg/kg/injection, schedule: Q01DX Z (ip), vehicle: saline) was 96 % of control; the T/C (dose: 31.0 micrograms/kg/injection, schedule: Q01DX Z (ip), vehicle: saline) is 101 % of control; the T/C (dose: 63.0 micrograms/kg/injection, schedule: Q01DX Z (ip), vehicle: saline) is 98 % of control; the T/C (dose: 125.0 micrograms/kg/injection, schedule: Q01DX Z (ip), vehicle: saline) was 104 % of control; the T/C (dose: 250.0 micrograms/kg/injection, schedule: Q01DX Z (ip), vehicle: saline) is 104 % of control. In addition, the T/C (dose: 500.0 micrograms/kg/injection, schedule: Q01DX Z (ip), vehicle: saline) was 110 % of control.
As to `CSc1ncnc2nc[nH]c12`, the T/C reads like this: under setting [11], 100 % of control; under setting [12], 100 % of control; under setting [7], 93 % of control; (dose: 100.0 mg/kg/injection, schedule: Q01DX010 (ip), vehicle: saline) 115 % of control; (dose: 200.0 mg/kg/injection, schedule: Q01DX010 (ip), vehicle: saline) 120 % of control; under setting [10], 114 % of control.
Consider `O=C(Nc1ccc(C2=NCCN2)cc1)c1cccc(C(=O)Nc2ccc(C3=NCCN3)cc2)c1`, for which the T/C (dose: 2.35 mg/kg/injection, schedule: Q01DX Z (ip), vehicle: water) was 106 % of control; the T/C (dose: 4.7 mg/kg/injection, schedule: Q01DX Z (ip), vehicle: water) was 96 % of control; the T/C (dose: 9.4 mg/kg/injection, schedule: Q01DX Z (ip), vehicle: carboxymethylcellulose (CMC)) is 152 % of control; the T/C under setting [6] is 300 % of control and 333 % of control; the T/C (dose: 18.8 mg/kg/injection, schedule: Q01DX Z (ip), vehicle: carboxymethylcellulose (CMC)) was 175 % of control; the T/C (dose: 32.0 mg/kg/injection, schedule: Q01DX010 (ip), vehicle: saline) was 300 % of control and 333 % of control. For the same compound, the T/C runs as follows: (dose: 37.5 mg/kg/injection, schedule: Q01DX Z (ip), vehicle: carboxymethylcellulose (CMC)) 206 % of control; (dose: 64.0 mg/kg/injection, schedule: Q01DX010 (ip), vehicle: saline) 294 % of control and 300 % of control; (dose: 75.0 mg/kg/injection, schedule: Q01DX Z (ip), vehicle: carboxymethylcellulose (CMC)) 209 % of control; (dose: 128.0 mg/kg/injection, schedule: Q01DX010 (ip), vehicle: saline) 200 % of control; (dose: 150.0 mg/kg/injection, schedule: Q01DX Z (ip), vehicle: water) 100 % of control.
For `CO[C@@H]1[C@@H](OC2OC(C)C(OC3CC(C)(O)C(OC(=O)CC(C)C)C(C)O3)C(N(C)C)C2O)[C@@H](CC=O)C[C@@H](C)C(=O)/C=C/C2O[C@H]2C[C@@H](C)OC(=O)C[C@H]1OC(C)=O` (some centres undefined), the T/C reads like this: (dose: 37.5 mg/kg/injection, schedule: Q01DX010 (ip), vehicle: saline) 111 % of control and 120 % of control; (dose: 150.0 mg/kg/injection, schedule: Q01DX010 (ip), vehicle: saline) 111 % of control and 115 % of control; (dose: 300.0 mg/kg/injection, schedule: Q01DX010 (ip), vehicle: saline) 122 % of control.
Turning to `Cn1c(N)nc2nc[nH]c2c1=S`, the T/C was 92 % of control (dose: 1.6 mg/kg/injection, schedule: Q01DX Z (ip), vehicle: carboxymethylcellulose (CMC)); 95 % of control (dose: 3.1 mg/kg/injection, schedule: Q01DX Z (ip), vehicle: carboxymethylcellulose (CMC)); 95 % of control and 98 % of control under setting [11]; 120 % of control and 100 % of control (dose: 10.0 mg/kg/injection, schedule: Q01DX010 (ip), vehicle: saline); 96 % of control and 102 % of control under setting [12]; 105 % of control (dose: 20.0 mg/kg/injection, schedule: Q01DX010 (ip), vehicle: saline). The T/C under setting [7] was 96 % of control and 100 % of control and 105 % of control; the T/C under setting [8] is 98 % of control and 104 % of control; the T/C under setting [9] is 98 % of control and 102 % of control.
For `O=C(Nc1ccc(C2=NCCCN2)cc1)c1ccc(NC(=O)c2ccc(C3=NCCCN3)cc2)cc1`, the T/C is, setting by setting: (dose: 1.95 mg/kg/injection, schedule: Q01DX Z (ip), vehicle: water) 123 % of control; (dose: 3.9 mg/kg/injection, schedule: Q01DX Z (ip), vehicle: carboxymethylcellulose (CMC)) 157 % of control; (dose: 3.9 mg/kg/injection, schedule: Q01DX Z (ip), vehicle: water) 193 % of control; (dose: 7.8 mg/kg/injection, schedule: Q01DX Z (ip), vehicle: water) 202 % of control; (dose: 15.6 mg/kg/injection, schedule: Q01DX Z (ip), vehicle: carboxymethylcellulose (CMC)) 92 % of control; (dose: 15.6 mg/kg/injection, schedule: Q01DX Z (ip), vehicle: water) 86 % of control.
